Where two headings read alike, the source gives them in different places. No end group written: not given here.
Tests used:
B. cercus LMGT 2735 = tested on: B. cercus LMGT 2735
Description: (§1) Bacterial strains, growth conditions, bacteriocins and antimicrobial assays. All the strains (see below) used in minimal inhibitory concentration (MIC) assays (Varahan et al., 2014, M. Bio. 5:e01726-01714) were grown in BHI medium (Oxoid) at 30° C. without shaking. A collection of E. faecium strains isolated from blood in patients from different European hospitals was received from Department of Medical Microbiology, University Medical Center Utrecht, the Netherlands. […] Synthesized peptides were solubilized to concentrations of 10.0-0.1 mg/ml in 0.1% (vol/vol) trifluoroacetic acid and stored at −20° C. until use. […] Bacteriocin activity was determined by microtiter plate assay as previously described (Holo et al., 1991, J. Bacteriol., 173:3879-3887). The MIC was defined as the minimal bacteriocin concentration that inhibited the growth of the indicator strain by at least 50% (50% of the turbidity of the control culture without bacteriocin) in 200 μl culture. CD Spectroscopy Circular dichroism (CD) spectra were recorded using a Jasco J-810 spectropolarimeter (Jasco International Co) calibrated with D-camphor-10-sulfonate (Icatayama Chemical). All measurements were made using a quartz cuvette (Sterna) with 0.1 cm path length. Samples were scanned five times with a scanning rate of 50 nm/min with a bandwidth of 0.5 nm and response time of 1 s over the wavelength range 190-250 nm. Spectra were recorded at different (30 and 50%) trifluoroethanol (TFE) (Aldridge) concentrations at 25° C. The approximate α-helical content of the protein was estimated from its molar ellipticity at 222 nm (Scholtz et al., 1991, Biopolymers 31:1463-1470). NMR Spectroscopy The experiments were run on a sample containing 1.0 mM EntK1, 50% D3-TFE (99.5% D) (Aldrich), Milli-Q water and 0.2 mM of 4,4-dimethyl-4-silapentane-1-sulfonic acid (DSS) (Larodan). 2D NOESY (Jeener et al., 1979, J. Magn. Reson., 71:4546-4553), 2D TOCSY (Braunschweiler and Ernst, 1983, J. Magn. Reson., 53:521-528), 2D DQCOSY, ^15N-HSQC (Davis et al., 1992, J. Magn. Reson., 98:207-216) and ^13C-HSQC (Hurd, 1991, J. Magn. Reson., 91:648-653) were recorded. The data was acquired on a 600 MHz Bruker Avance II spectrometer with four channels and a 5 mm TCI cryoprobe (Bruker Biospin). NOESY spectra with mixing times between 120 ms and 300 ms were obtained for both samples. TOCSY mixing times of 15-80 ms were used. The experiments were run at 298.15 K. Spectra were processed using the Topspin program (Bruker Biospin). 4,4-dimethyl-4-silapentane-1-sulfonic acid (DSS) was used as a chemical shift standard, and ^15N and ^13C data were referenced using frequency ratios as described in (Wishart et al., 1995, J. Biomol. NMR., 6:135-140). For visualization, assignment and integration of the spectra the computer program CARA was used (Keller, 2004, The Computer Aided Resonance Assignment Tutorial. CANTINA Verlag, Goldau, Switzerland). The spectra were assigned using standard methods. Dihedral angle restraints were obtained from the chemical shift values using the program TALOS-N(Shen and Bax, 2013, J. Biomol. NMR, 56:227-241). Nuclear Overhauser effect (NOE) distance restraints were calculated from the peak volumes in the NOESY spectra with NOESY mixing time of 200 ms. All structure calculations were made using the structure calculation program CYANA 2.1 (Guntert et al., 1997, J. Mol. Biol., 273:283-298; Herrmann et al., 2002, J. Mol. Biol., 319:209-227). The annealing macro in CYANA calculated 100 structures. The 20 structures with the lowest energy were kept and analyzed further. The root-mean-square deviation (RMSD) was calculated and the structures were visualized using MolMol (Koradi et al., 1996, J. Mol. Graph., 14:51-55, 29-32). Generation of bacteriocin resistant mutants of E. faecalis and E. faecium.

B. cereus LMGT 2731 = tested on: B. cereus LMGT 2731
Description: as §1

B. cereus LMGT 3025 = tested on: B. cereus LMGT 3025
Description: as §1

E. faecalis LMGT 3143 = tested on: E. faecalis LMGT 3143
Description: as §1

E. faecalis LMGT 3359 = tested on: E. faecalis LMGT 3359
Description: as §1

E. faecalis LMGT 3386 = tested on: E. faecalis LMGT 3386
Description: as §1

E. faecalis LMGT 3567 = tested on: E. faecalis LMGT 3567
Description: as §1

E. faecalis LMGT 3571 = tested on: E. faecalis LMGT 3571
Description: as §1

E. faecalis LMGT 3572 = tested on: E. faecalis LMGT 3572
Description: as §1

E. faecium LMGT 2787 = tested on: E. faecium LMGT 2787
Description: as §1

E. faecium LMGT 3110 = tested on: E. faecium LMGT 3110
Description: as §1

E. faecium LMGT 3192 = tested on: E. faecium LMGT 3192
Description: as §1

E. faecium LMGT 3599 = tested on: E. faecium LMGT 3599
Description: as §1

L. curvatus LMGT 2355 = tested on: L. curvatus LMGT 2355
Description: as §1

L. garvieae LMGT 2217 = tested on: L. garvieae LMGT 2217
Description: as §1

L. lactis IL1403 = tested on: L. lactis IL1403
Description: as §1

L. lactis LMGT 2233 = tested on: L. lactis LMGT 2233
Description: as §1

[1] = tested on: Lactobacillus sakei LMGT 2334
Description: as §1

S. aureus LMGT 3266 = tested on: S. aureus LMGT 3266
Description: as §1

S. aureus LMGT 3289 = tested on: S. aureus LMGT 3289
Description: as §1

S. pneumoniae ds 221 = settings: ds 221, no rseP
Description: as §1

S. pneumoniae ms1 = settings: ms1, rseP H18>A, induced with ComS (2 μM)
Description: as §1

Row | Sequence | MIC 50 (B. cercus LMGT 2735) [µM] | MIC 50 (B. cereus LMGT 2731) [µM] | MIC 50 (B. cereus LMGT 3025) [µM] | MIC 50 (E. faecalis LMGT 3143) [µM] | MIC 50 (E. faecalis LMGT 3359) [µM] | MIC 50 (E. faecalis LMGT 3386) [µM] | MIC 50 (E. faecalis LMGT 3567) [µM] | MIC 50 (E. faecalis LMGT 3571) [µM] | MIC 50 (E. faecalis LMGT 3572) [µM] | MIC 50 (E. faecium LMGT 2787) [µM] | MIC 50 (E. faecium LMGT 3110) [µM] | MIC 50 (E. faecium LMGT 3192) [µM] | MIC 50 (E. faecium LMGT 3599) [µM] | MIC 50 (L. curvatus LMGT 2355) [µM] | MIC 50 (L. garvieae LMGT 2217) [µM] | MIC 50 (L. lactis IL1403) [µM] | MIC 50 (L. lactis LMGT 2233) [µM] | MIC 50 (S. aureus LMGT 3266) [µM] | MIC 50 (S. aureus LMGT 3289) [µM] | MIC (S. pneumoniae ds 221) [µM] | other results
1 | MLAKIKAMIKKFPNPYTLAAKLTTYEINWYKQQYGRYPWERPVA [EntEJ97] | >4.7 | >4.7 | 2.3 | 0.145 | 0.145 | 0.295 | 0.295 | 0.295 | 0.145 | 0.145 | 0.295 | 0.295 | 0.145 | 0.145 | 0.295 | 0.037 | 0.145 | 1.175 | >4.7 | >4.5 | MIC 50 ([1]; Lactobacillus sakei LMGT 2334): >4.7 µM; MIC (S. pneumoniae ms1): 0.3 µM
2 | MKFKFNPTGTIVKKLTQYEIAWFKNKHGYYPWEIPRC [EntK1] | >5.5 | >5.5 | >5.5 | >5.5 | >5.5 | >5.5 | >5.5 | >5.5 | >5.5 | 0.02 | 0.045 | 0.02 | 0.085 | 5.5 | 0.34 | 0.17 | >5.5 | >5.5 | >5.5 | >5.5 | MIC 50 ([1]; Lactobacillus sakei LMGT 2334): >5.5 µM; MIC (S. pneumoniae ms1): >5.5 µM
3 | MKTILRFVAGYDIASHKKKTGGYPWERGKA [LsbB, reference compound] | >7 | >7 | >7 | >7 | >7 | >7 | >7 | >7 | >7 | >7 | >7 | >7 | >7 | >7 | >7 | 0.0005 | >7 | >7 | >7 | >7 | times more potent than EntEJ97 (L. lactis IL1403): ~70 times; times more potent than EntK1 (L. lactis IL1403): about 340 times; MIC 50 ([1]; LMGT 2334): >7 µM; MIC (S. pneumoniae ms1): >7 µM

— patent US11648289B2, “Antibacterial method” (priority 2016, dated 2023)
